The source of these data is article PMC10388363, “Novel 1,4-Dihydropyridines as Specific Binders and Activators of SIRT3 Impair Cell Viability and Clonogenicity and Downregulate Hypoxia-Induced Targets in Cancer Cells” (Journal of Medicinal Chemistry, 2023).

By Kd is commonly meant the free concentration of one partner at which half of the binding sites on the other are occupied at equilibrium, for simple one-to-one binding. A high value points to a looser complex.

The target of test [1] is T1, human SIRT3 (Homo sapiens, UniProt Q9NTG7).
T1 construct: pET151D/Topo (Sirt3-114-380 and Sirt5-34-302); His tag (N, cleaved yes); made in house; host or cells: Escherichia coli
T1 sequence (Q9NTG7 114-380): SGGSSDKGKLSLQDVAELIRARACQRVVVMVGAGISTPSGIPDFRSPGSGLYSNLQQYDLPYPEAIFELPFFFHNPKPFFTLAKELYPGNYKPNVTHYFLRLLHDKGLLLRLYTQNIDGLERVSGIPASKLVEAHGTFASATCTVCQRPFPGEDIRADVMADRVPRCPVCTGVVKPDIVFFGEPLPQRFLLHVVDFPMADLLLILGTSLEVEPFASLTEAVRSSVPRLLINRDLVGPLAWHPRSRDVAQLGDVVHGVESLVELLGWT
Also on record: method as in PMID 36228194. Particulars: 100 μM; cited from earlier work.

For test [2], the system named is GDH activity in MDA-MB-231 cells. The test is described as follows: GDH activity assay in lysates of treated MDA-MB-231 cells. Type of test: cell-based, human. Particulars: 50 μM, 4 h. The method, then: Selected compounds 3a–d were tested in triple-negative breast cancer MDA-MB-231 cells to evaluate their effects on SIRT3 physiological substrates. First, the effect on the activity of GDH (an established SIRT3 substrate activated through deacetylation[60]−[62]) was investigated by a coupled enzyme assay. […] These effects of SIRT3 activators clearly phenocopied those observed in the SIRT3-overexpressing MDA-MB-231 cells (SIRT3^+) (Figure 6).
GDH activity in cells treated or not with the SIRT3 activators 3a–d and the reference compounds 2 and 3 was measured using a GDH activity assay kit (MAK099, Merck) following the manufacturer’s instructions. Briefly, 10^6 cells were lysed in 40 μL of GDH assay buffer and kept for 10 min in ice. Afterward, lysates were centrifuged to collect supernatants. Ten microliters of supernatant were added to 40 μL of GDH buffer and 100 μL of a mix containing GDH assay buffer, developer, and glutamate. The whole mix was transferred into a 96-well plate and incubated at 37 °C for 3 min. Finally, absorbance was read at 450 nm using a GloMax multi detection system (Promega, Milan, Italy). The absorbance of the assay buffer was subtracted from each experimental sample.

In test [3] the target is T1, human SIRT3. Put plainly: Surface plasmon resonance binding assay, immobilized SIRT3. Particulars: SPR, Scatchard analysis, analytes 5-80 μM. Here is the method: Next, surface plasmon resonance (SPR) experiments were conducted with selected SIRT3 activators 2e and 3a–d to ascertain their biophysical interaction with the human SIRT3 protein. Their parental compounds 2 and 3, together with honokiol, were used as positive controls. The experiments were carried out twice at different concentrations (5, 10, 20, 40, and 80 μM), by injecting the compounds at increasing doses (Figure 5). The resonance units (RU) increase with respect to baseline indicates the formation of the SIRT3/ligand complex, the plateau region represents the steady-state phase of the interaction (RUeq, RU at equilibrium) and the decrease in RU after 180 s represents dissociation of analytes from the immobilized SIRT3 protein after injection of the buffer.
SPR experiments were carried out using a SensiQ Pioneer system (SensiQ, Oklahoma City, OK, USA), essentially as in Genovese et al. 2020[84] and in Battista et al. 2021,[85] with some modifications, as follows.
The sensor chip (COOH5) was chemically activated by a 35 μL injection of a 1:1 mixture of […] (200 mM) and N-hydroxysuccinimide (50 mM) at a flow rate of 5 μL/min. Sirtuin3 (ligand) was immobilized on activated sensor chips via amine coupling. Immobilization was carried out in 20 mM sodium acetate at pH 4.0; unreacted groups were blocked by injecting 1 M ethanolamine hydrochloride (35 μL). Sirtuin3 immobilization level obtained was 1500–4000 RU.
The analytes, dissolved in 100% DMSO at 10 mM concentration, were diluted in buffer 20 mM Hepes, 150 mM NaCl, 0.005% surfactant P20 buffer (HBSP) to a concentration of 200 μM (2% final DMSO concentration), further diluted in HBSP + 2% DMSO (HBSP2%D) and injected on the sensor chip at a constant flow rate (nominal flow rate = 30 μL/min) at the following concentrations: 5, 10, 20, 40, and 80 μM.
The RU increase relative to baseline indicates complex formation (taking place at known analytes concentrations at each moment in the gradient); the plateau region represents the steady-state phase of the interaction (RUeq); and the decrease in RU after 180 s represents dissociation of analytes from the immobilized Sirtiun3 after injection of HBSP2%D. Regeneration procedures are based on two long (2000 and 500 s) injections of buffer, separated by a brief (5 s) injection of 10 mM NaOH.
Control experiments were performed in sensor chips treated as described above in the absence of an immobilized ligand. Kinetic evaluation of the sensorgrams was obtained using the SensiQ Qdat program and full fitting with 1, 2, and 3 sites; Scatchard analysis was used to determine apparent KD values.
Background: Surface plasmon resonance follows binding to a sensor surface in real time, without labels.

Test [4] deals with acK68- and acK122-MnSOD in CAL-62 cells. The test is described as follows: Western blot of MnSOD acK68 and acK122 marks in CAL-62 cells. The test is classed as cell-based. Particulars: CAL-62, negative control SIRT3 inhibitor. Here is the method:
(§1) K68-MnSOD acetylation promotes a transformation-permissive phenotype, leading to a chemotherapy-resistant breast cancer cell model using cisplatin and doxorubicin.[68] […] The specific SIRT3 inhibitor 3-TYP was utilized as negative control.
(§2) Breast cancer cell line MDA-MB-231, anaplastic thyroid cancer cell line CAL-62 and human keratinocytes HaCaT were purchased from ATCC and were cultured in RPMI 1640 medium (R0883 Sigma Aldrich-MERCK) (MDA-MB-231 and CAL-62) or DMEM medium (11965092, Gibco) supplemented with 10% fetal bovine serum (Sigma-Aldrich-MERCK, F9665), 2 mM glutamine (G7513; Sigma-Aldrich-MERCK), 100 units/mL penicillin and 0.1 mg/mL streptomycin (P0781; Sigma-Aldrich-MERCK). Adherent cells were detached by Trypsin–EDTA solution (TA049; Sigma-Aldrich-MERCK). Cells were maintained at 37 °C in humidified incubator with 5% CO2. Cells were treated with […] (CoCl2) (Merck; C8661) dissolved in distilled, sterile water for 24 h to induce hypoxia (200 μM). […]
(§3) Treated and untreated cells were collected and centrifuged at 3000 rpm for 5 min. […] Protein concentration was determined by the Bradford assay (Bio-Rad; 500-0205). […] After three more washes in PBST, the detection of the relevant protein was assessed by enhanced chemiluminescence (Lite Ablot TURBO, Euro-Clone; EMP012001). […]
(In western blotting, separated proteins are transferred to a membrane and probed.)

The test system of test [5] is acK68- and acK122-MnSOD in MDA-MB-231 cells. Put plainly: Western blot of MnSOD acK68 and acK122 marks in MDA-MB-231 cells. Particulars: MDA-MB-231, negative control SIRT3 inhibitor. Type of test: cell-based, human. The method, then: as §1, §2
(§4) The following antibodies were used in this study: ACTB (Merck; A5316), HIF1-α (Cell Signaling; 14179), HIF2/EPAS-1 (Santa Cruz Biotechnology sc-13596), HXKII (Santa Cruz Biotechnology sc-6521), CAIX (Novus Biotechnology NB100-417), SIRT3 (Cell Signaling; 2627S), MnSOD (Abcam ab13533), MnSOD K68 (Abcam ab137037), MnSOD K122 (Abcam ab214675), peroxidase-conjugated AffiniPure Goat Anti-Rabbit IgG (H + L) (Jackson ImmunoResearch; 111-035-003), and peroxidase-conjugated AffiniPure Goat Anti-Mouse IgG (H + L) (Jackson ImmunoResearch; 115-035-062).
as §3

Test [6] concerns HIF-1α, EPAS-1, and CA-IX protein expression in MDA-MB-231. The test is described as follows: Western blot of HIF-1α, EPAS-1 and CA-IX in MDA-MB-231 cells under hypoxia. Type of test: cell-based, human. Particulars: MDA-MB-231, hypoxia, negative control SIRT3 inhibitor. Here is the method: (§5) Based on these findings, we decided to assess the ability of the SIRT3 activators 3a–d to impair HIF-1α, EPAS-1, and CA-IX protein expression in CAL-62 (Figure 10A–F) and MDA-MB-231 (Figure 11A–F) cell lines treated with the compounds at 50 μM for 48 h and under hypoxia conditions.
(§6) Breast cancer cell line MDA-MB-231, anaplastic thyroid cancer cell line CAL-62 and human keratinocytes HaCaT were purchased from ATCC and were cultured in RPMI 1640 medium (R0883 Sigma Aldrich-MERCK) (MDA-MB-231 and CAL-62) or DMEM medium (11965092, Gibco) supplemented with 10% fetal bovine serum (Sigma-Aldrich-MERCK, F9665), 2 mM glutamine (G7513; Sigma-Aldrich-MERCK), 100 units/mL penicillin and 0.1 mg/mL streptomycin (P0781; Sigma-Aldrich-MERCK). Adherent cells were detached by Trypsin–EDTA solution (TA049; Sigma-Aldrich-MERCK). Cells were maintained at 37 °C in humidified incubator with 5% CO2. Cells were treated with […] (CoCl2) (Merck; C8661) dissolved in distilled, sterile water for 24 h to induce hypoxia (200 μM). Hypoxic and normoxic cells were also treated with 10/50 μM of the indicated compounds (dissolved in DMSO) for 48 h, maintaining the CoCl2 in the culture medium for hypoxic conditions. SIRT3 inhibitor 3-TYP was dissolved in DMSO and added to a final concentration of 1 μM for 24 and/or 48 h.
as §4
(§7) Treated and untreated cells were collected and centrifuged at 3000 rpm for 5 min. After removing the supernatant, cells were lysed in 70 μL of lysis buffer containing: 50 mM Tris-Cl (Merck; 93352), 250 mM sodium chloride (NaCl, Merck; S7653), 5 mM ethylenediaminetetraacetic acid (EDTA; Merck; E6758), 0.1% Triton X-100 and 0.1 mM dithiothreitol (Merck; D9163) plus 1 mM phenylmethylsulfonyl fluoride (PMSF, Merck; 93482), protease inhibitor cocktail (PI; Merck; P8340), 1 mM sodium orthovanadate (NA3VO4, Merck; S6508), and 10 mM sodium fluoride (NaF, Merck; 201154) (lysis buffer). After 30 min on ice, samples were centrifuged at 13,000 rpm for 10 min at 4 °C, and the supernatants collected. Protein concentration was determined by the Bradford assay (Bio-Rad; 500-0205). The equivalent of 15 or 50 μg of protein was boiled for 5 min, electrophoresed onto denaturing SDS-PAGE gel, and transferred onto a […] nitrocellulose membrane (Bio-Rad; 162-0115). After blocking with 5% milk, membranes were incubated with the appropriate primary antibody overnight. The next day, after three washes with 0.1% Tween 20 (Merck; P9416) in PBS (PBST) for 30 min at rt, membranes were incubated with the appropriate secondary antibody for 1 h at rt. After three more washes in PBST, the detection of the relevant protein was assessed by enhanced chemiluminescence (Lite Ablot TURBO, Euro-Clone; EMP012001). Densitometric analysis of the bands, relative to ACTB, was performed using ImageJ Software v1.51 (NIH, Bethesda, MD, USA).

Test [7] has as its system HIF-1α, EPAS-1, and CA-IX protein expression in CAL-62. The test is described as follows: Western blot of HIF-1α, EPAS-1 and CA-IX in CAL-62 cells under hypoxia. Type of test: cell-based. Here is the method: as §5, §6, §4, §7

For the compound `CCOC(=O)C1=CN(C(=O)c2cc(OC)c(OC)c(OC)c2)C=C(C(=O)OCC)C1c1ccccc1` [Compound 3], the SIRT3 activation entry in test [1] is listed as “over 400%”. Moreover, the GDH activation result in test [2] is listed as “around 175%”. In test [3], the Kd was in the range of 40 to 47 µM.

With `C=CCc1ccc(O)c(-c2ccc(O)c(CC=C)c2)c1` [honokiol], the Kd in test [3] was 40 to 47 µM.

On to `c1cncc(-c2cnn[nH]2)c1` [3-TYP, reference compound], for which the “acetylation levels of both K68 and K122 residues of MnSOD” value in test [4] and in test [5] was “markedly increased” throughout. Further, the “HIF-1α, EPAS-1, and CA-IX protein expression” value in test [6] is given as “did not show any activity”; in test [7] (CAL-62, hypoxia, negative control SIRT3 inhibitor) it was “negligible effects”.

As to `CCOC(=O)C1=CN(C(=O)c2ccc(OC)cc2)C=C(C(=O)OCC)C1c1ccccc1` [Compound 3b, Diethyl 1-(4-methoxybenzoyl)-4-phenyl-1,4-dihydropyridine-3,5-dicarboxylate], in test [2], the “effect on GDH activity in cell lysates” value is reported as “negligible effect”. Besides, in test [7] (CAL-62, 50 μM, 48 h, hypoxia), the CA-IX protein expression entry is on record as “significantly downregulated”.
